Converted amounts (≈) assume the structure as drawn.
Legend:
[1] = Dissociation constant, pKa of the compound; format: physicochemical
[2] = target: Voltage-gated inwardly rectifying potassium channel KCNH2 (Homo sapiens, UniProt Q12809)
[3] = target: T1, Receptor tyrosine-protein kinase erbB-2 (Homo sapiens, UniProt P04626); experiment: Inhibition of ebrB2 expressed in human MCF7 cells by autophosphorylation assay; format: cell-based
[4] = Fraction unbound ligand in Han Wistar rat plasma protein; format: ADME, cell-free
[5] = Bioavailability in Beagle dog at 1 mg/kg, iv and 2 mg/kg, po; format: ADME, organism-based, Canis lupus familiaris; details: in vivo
KB = experiment: cells; details: Homo sapiens
Rattus norvegicus [6] = experiment: Clearance in Han Wistar rat assessed as hepatic blood flow at 2 mg/kg, iv and 5 mg/kg, po; format: ADME, organism-based, Liver; details: in vivo
[7] = Bioavailability in Han Wistar rat at 2 mg/kg, iv and 5 mg/kg, po; format: ADME, organism-based; details: in vivo
[8] = target: Epidermal growth factor receptor (Homo sapiens, UniProt P00533)
[9] = Solubility in aqueous phosphate buffer at pH 7.4 after 24 hrs; format: physicochemical
Mus musculus [10] = species: Mus musculus; experiment: animal or person; details: BT474c, po, 1 h, read-out: Inhibition
[11] = Fraction unbound ligand in mouse plasma protein; format: ADME, cell-free
[12] = Volume of distribution at steady state in Han Wistar rat at 2 mg/kg, iv and 5 mg/kg, po; format: ADME, organism-based; details: in vivo, read-out: Vdss
Canis familiaris [13] = experiment: Clearance in Beagle dog assessed as hepatic blood flow at 1 mg/kg, iv and 2 mg/kg, po; format: ADME, organism-based, Canis lupus familiaris, Liver; details: in vivo
[14] = Volume of distribution at steady state in Beagle dog at 1 mg/kg, iv and 2 mg/kg, po; format: ADME, organism-based, Canis lupus familiaris; details: in vivo, read-out: Vdss
Mus musculus [15] = species: Mus musculus; experiment: animal or person; details: BT474c, po, 8 h, read-out: Inhibition
[16] = Partition coefficient, log D at pH 7.4; format: physicochemical; details: octanol/water
[17] = Fraction unbound ligand in Beagle dog at 0.2 mg/kg, iv and 0.4 mg/kg, po; format: ADME, organism-based, Canis lupus familiaris; details: in vivo
[18] = Volume of distribution at steady state in Beagle dog at 0.2 mg/kg, iv and 0.4 mg/kg, po; format: ADME, organism-based, Canis lupus familiaris; details: in vivo, read-out: Vdss
cells = details: Homo sapiens, BT474c
Mus musculus [19] = species: Mus musculus; experiment: animal or person; details: BT474c, po, 1 h, read-out: Inhibition; remark: listed apart in the source
Canis familiaris [20] = experiment: Clearance in Beagle dog assessed as hepatic blood flow at 0.2 mg/kg, iv and 0.4 mg/kg, po; format: ADME, organism-based, Canis lupus familiaris, Liver; details: in vivo
Mus musculus [21] = species: Mus musculus; experiment: animal or person; details: BT474c, po, 8 h, read-out: Inhibition; remark: listed apart in the source
[22] = Bioavailability in Beagle dog at 0.2 mg/kg, iv and 0.4 mg/kg, po; format: ADME, organism-based, Canis lupus familiaris; details: in vivo
[23] = target: T1, Receptor tyrosine-protein kinase erbB-2; experiment: Inhibition of ebrB2
Rattus norvegicus [24] = experiment: Clearance in Han Wistar rat assessed as hepatic blood flow at 0.4 mg/kg, iv and 1 mg/kg, po; format: ADME, organism-based, Liver; details: in vivo
[25] = Volume of distribution at steady state in Han Wistar rat at 0.4 mg/kg, iv and 1 mg/kg, po; format: ADME, organism-based; details: in vivo, read-out: Vdss
[26] = Bioavailability in Han Wistar rat at 0.4 mg/kg, iv and 1 mg/kg, po; format: ADME, organism-based; details: in vivo

T1 sequence (P04626 whole entry): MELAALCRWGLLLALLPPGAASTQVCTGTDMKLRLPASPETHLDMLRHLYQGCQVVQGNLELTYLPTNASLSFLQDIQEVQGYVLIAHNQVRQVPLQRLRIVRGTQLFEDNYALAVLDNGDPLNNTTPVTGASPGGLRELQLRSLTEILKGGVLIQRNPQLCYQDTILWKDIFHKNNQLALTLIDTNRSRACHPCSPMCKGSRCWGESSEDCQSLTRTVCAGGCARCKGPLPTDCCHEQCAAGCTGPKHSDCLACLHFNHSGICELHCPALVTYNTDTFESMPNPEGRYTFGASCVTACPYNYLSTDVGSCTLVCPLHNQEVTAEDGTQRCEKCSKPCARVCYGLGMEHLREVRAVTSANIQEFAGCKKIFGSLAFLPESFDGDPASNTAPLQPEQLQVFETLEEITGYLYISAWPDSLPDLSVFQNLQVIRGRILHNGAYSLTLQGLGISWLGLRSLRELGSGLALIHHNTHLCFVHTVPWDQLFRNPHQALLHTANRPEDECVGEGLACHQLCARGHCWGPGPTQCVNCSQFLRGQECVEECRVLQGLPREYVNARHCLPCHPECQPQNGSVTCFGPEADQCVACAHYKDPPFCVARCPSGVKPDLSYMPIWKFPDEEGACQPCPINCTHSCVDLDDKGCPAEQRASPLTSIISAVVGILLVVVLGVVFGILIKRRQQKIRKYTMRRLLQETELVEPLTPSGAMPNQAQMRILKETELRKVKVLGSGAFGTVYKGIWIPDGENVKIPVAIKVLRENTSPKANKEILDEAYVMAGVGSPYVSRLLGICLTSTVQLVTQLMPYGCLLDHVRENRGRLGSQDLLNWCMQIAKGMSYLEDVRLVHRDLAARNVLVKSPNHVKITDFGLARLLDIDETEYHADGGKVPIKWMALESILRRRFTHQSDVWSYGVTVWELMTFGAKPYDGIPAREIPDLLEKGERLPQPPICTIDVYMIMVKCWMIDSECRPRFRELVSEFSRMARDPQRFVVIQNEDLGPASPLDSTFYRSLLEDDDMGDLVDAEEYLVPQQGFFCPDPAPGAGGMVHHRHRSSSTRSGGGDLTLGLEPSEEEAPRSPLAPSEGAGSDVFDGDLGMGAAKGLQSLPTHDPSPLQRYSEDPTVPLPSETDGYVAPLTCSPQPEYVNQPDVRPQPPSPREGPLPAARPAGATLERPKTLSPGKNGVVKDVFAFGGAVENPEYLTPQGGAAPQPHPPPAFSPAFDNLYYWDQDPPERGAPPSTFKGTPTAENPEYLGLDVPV
Epidermal growth factor receptor, sequence (P00533 whole entry): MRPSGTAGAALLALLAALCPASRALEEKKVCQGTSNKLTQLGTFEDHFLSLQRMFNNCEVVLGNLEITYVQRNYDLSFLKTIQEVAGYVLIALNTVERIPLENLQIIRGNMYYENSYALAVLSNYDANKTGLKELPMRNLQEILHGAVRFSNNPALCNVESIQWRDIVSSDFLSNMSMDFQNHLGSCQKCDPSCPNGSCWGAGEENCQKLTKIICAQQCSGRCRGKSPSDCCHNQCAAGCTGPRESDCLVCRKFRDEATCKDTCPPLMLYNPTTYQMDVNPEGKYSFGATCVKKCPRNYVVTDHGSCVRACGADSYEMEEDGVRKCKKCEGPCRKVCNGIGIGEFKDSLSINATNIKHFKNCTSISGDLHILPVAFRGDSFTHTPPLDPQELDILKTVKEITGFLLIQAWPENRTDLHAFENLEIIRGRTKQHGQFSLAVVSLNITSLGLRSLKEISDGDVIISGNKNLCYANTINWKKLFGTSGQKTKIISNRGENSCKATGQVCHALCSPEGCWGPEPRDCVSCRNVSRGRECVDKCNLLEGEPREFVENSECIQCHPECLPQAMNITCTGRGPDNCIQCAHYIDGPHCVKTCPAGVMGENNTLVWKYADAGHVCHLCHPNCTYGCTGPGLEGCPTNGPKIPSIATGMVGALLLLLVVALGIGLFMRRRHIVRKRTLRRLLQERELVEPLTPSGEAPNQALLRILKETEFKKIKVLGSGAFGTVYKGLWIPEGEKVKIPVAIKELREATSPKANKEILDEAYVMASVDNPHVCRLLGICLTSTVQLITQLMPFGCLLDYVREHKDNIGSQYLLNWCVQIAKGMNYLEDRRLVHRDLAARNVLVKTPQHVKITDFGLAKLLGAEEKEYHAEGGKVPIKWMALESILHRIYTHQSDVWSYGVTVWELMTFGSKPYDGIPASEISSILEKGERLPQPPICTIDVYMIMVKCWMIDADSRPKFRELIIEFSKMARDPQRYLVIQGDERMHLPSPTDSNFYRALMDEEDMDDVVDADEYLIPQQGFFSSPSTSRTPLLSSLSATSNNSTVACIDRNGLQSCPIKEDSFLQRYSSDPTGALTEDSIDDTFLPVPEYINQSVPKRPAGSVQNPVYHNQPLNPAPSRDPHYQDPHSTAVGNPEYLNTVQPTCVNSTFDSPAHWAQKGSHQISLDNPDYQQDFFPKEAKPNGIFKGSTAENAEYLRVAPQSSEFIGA
Voltage-gated inwardly rectifying potassium channel KCNH2, sequence (Q12809 whole entry): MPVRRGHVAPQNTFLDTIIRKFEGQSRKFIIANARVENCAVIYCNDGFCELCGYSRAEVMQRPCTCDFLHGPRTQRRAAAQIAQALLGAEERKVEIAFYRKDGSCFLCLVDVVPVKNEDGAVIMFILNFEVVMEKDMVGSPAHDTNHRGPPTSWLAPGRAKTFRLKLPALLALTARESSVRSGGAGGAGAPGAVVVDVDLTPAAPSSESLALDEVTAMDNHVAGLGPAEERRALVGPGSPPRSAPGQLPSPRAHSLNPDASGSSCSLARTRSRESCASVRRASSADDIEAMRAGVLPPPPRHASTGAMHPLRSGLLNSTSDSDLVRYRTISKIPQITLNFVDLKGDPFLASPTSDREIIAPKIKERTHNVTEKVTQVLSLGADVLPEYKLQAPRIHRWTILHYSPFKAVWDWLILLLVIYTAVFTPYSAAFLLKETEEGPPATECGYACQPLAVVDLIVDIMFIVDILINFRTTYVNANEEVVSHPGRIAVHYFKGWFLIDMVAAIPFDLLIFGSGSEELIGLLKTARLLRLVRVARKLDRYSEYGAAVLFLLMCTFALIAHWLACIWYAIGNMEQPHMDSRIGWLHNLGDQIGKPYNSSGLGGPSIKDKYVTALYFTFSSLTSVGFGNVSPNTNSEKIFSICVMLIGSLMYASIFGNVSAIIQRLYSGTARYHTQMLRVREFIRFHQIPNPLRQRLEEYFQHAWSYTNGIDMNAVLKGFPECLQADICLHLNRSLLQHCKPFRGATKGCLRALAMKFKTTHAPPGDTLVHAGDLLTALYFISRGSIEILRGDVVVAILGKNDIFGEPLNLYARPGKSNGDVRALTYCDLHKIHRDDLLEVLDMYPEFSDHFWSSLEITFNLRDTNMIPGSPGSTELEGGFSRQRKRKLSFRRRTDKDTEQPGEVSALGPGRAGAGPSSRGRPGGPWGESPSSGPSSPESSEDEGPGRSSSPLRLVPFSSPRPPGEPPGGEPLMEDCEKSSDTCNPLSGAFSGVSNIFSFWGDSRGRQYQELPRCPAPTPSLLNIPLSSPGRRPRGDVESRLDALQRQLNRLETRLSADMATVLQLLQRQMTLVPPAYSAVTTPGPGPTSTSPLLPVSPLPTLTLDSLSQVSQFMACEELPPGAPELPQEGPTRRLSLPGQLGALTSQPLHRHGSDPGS

CN1CCC(Oc2cccc3ncnc(Nc4ccc(OCc5ccccn5)c(Cl)c4)c23)CC1
pKa [1]: 8.1 | IC50 [2]: 5000 nM

Cc1ccc(Oc2ccc(Nc3ncnc4cccc(OCC(=O)N(C)CCO)c34)cc2C)cn1
IC50 [3]: 130 nM

C[C@H](Oc1cccc2ncnc(Nc3ccc(OCc4ccccn4)c(Cl)c3)c12)C(=O)N(C)C
IC50 [3]: 43 nM | IC50 [2]: 10000 nM

C[C@H](Oc1cccc2ncnc(Nc3ccc(OCc4ccccn4)c(Cl)c3)c12)C(=O)N(C)CCO
IC50 [3]: 79 nM

Cc1ccc(Oc2ccc(Nc3ncnc4cccc(O[C@H](C)C(=O)N(C)C)c34)cc2C)cn1
fraction unbound [4]: 0.017 | bioavailability [5]: 47% | IC50 (KB): 2700 nM | %hepatic blood flow (Rattus norvegicus [6]): 12% | bioavailability [7]: 67% | IC50 [8]: 1100 nM | solubility at 24 h [9]: 28 µM (≈ 12.8 µg/mL) | inhibition in vivo at 100 mg/kg (Mus musculus [10]): 37% | fraction unbound [11]: 0.011 | Vd [12]: 0.9 L/kg | %hepatic blood flow (Canis familiaris [13]): 48% | IC50 [2]: 8000 nM | Vd [14]: 1.8 L/kg | inhibition in vivo at 100 mg/kg (Mus musculus [15]): 55% | logD [16]: > 4.3 | fraction unbound [17]: 0.025

COCCN(C)C(=O)[C@@H](C)Oc1cccc2ncnc(Nc3ccc(Oc4ccc(C)nc4)c(C)c3)c12
IC50 [3]: 120 nM

Cc1ccc(Oc2ccc(Nc3ncnc4cccc(O[C@H](C)C(=O)N(C)CCO)c34)cc2C)cn1
fraction unbound [4]: 0.029 | IC50 (KB): 23000 nM | %hepatic blood flow (Rattus norvegicus [6]): 23% | Vd [18]: 0.9 L/kg | bioavailability [7]: 34% | IC50 (cells): 270 nM | inhibition in vivo at 100 mg/kg (Mus musculus [19]): 78% | %hepatic blood flow (Canis familiaris [20]): 34% | inhibition in vivo at 100 mg/kg (Mus musculus [21]): 36% | IC50 [8]: 2000 nM | solubility at 24 h [9]: 66 µM (≈ 32.2 µg/mL) | fraction unbound [11]: 0.025 | Vd [12]: 1 L/kg | IC50 [3]: 69 nM | bioavailability [22]: 33% | logD [16]: 3.8 | fraction unbound [17]: 0.038 | IC50 [23]: 2 nM

C[C@@H](Oc1cccc2ncnc(Nc3ccc(OCc4ccccn4)c(Cl)c3)c12)C(=O)N(C)CCO
IC50 [3]: 31 nM

CN1CCN(C(=O)COc2cccc3ncnc(Nc4ccc(OCc5ccccn5)c(Cl)c4)c23)CC1
IC50 [3]: 350 nM

CN(CCO)C(=O)COc1cccc2ncnc(Nc3ccc(OCc4ccccn4)c(Cl)c3)c12
IC50 [3]: 120 nM

O=C(COc1cccc2ncnc(Nc3ccc(OCc4ccccn4)c(Cl)c3)c12)N1CCOCC1
IC50 [3]: 140 nM

Cc1ccc(Oc2ccc(Nc3ncnc4cccc(O[C@H](C)C(=O)NCCO)c34)cc2C)cn1
IC50 [3]: 200 nM

NC(=O)COc1cccc2ncnc(Nc3ccc(OCc4ccccn4)c(Cl)c3)c12
IC50 [3]: 180 nM

Cc1ccc(Oc2ccc(Nc3ncnc4cccc(O[C@H](C)C(=O)N5CCOCC5)c34)cc2C)cn1
IC50 [3]: 22 nM

Cc1ccc(Oc2ccc(Nc3ncnc4cccc(O[C@H](C)C(=O)N5CCOCC5)c34)cc2Cl)cn1
IC50 [3]: 27 nM

CNC(=O)[C@@H](C)Oc1cccc2ncnc(Nc3ccc(OCc4ccccn4)c(Cl)c3)c12
IC50 [3]: 66 nM | IC50 [2]: 32000 nM

C[C@@H](Oc1cccc2ncnc(Nc3ccc(OCc4ccccn4)c(Cl)c3)c12)C(=O)N1CCOCC1
IC50 [3]: 19 nM | IC50 [2]: 10000 nM

COc1cc(Nc2ncnc3cccc(O[C@H](C)C(=O)N4CCOCC4)c23)ccc1Oc1ccc(C)nc1
IC50 [3]: 23 nM

C[C@@H](Oc1cccc2ncnc(Nc3ccc(OCc4ccccn4)c(Cl)c3)c12)C(=O)N(C)C
fraction unbound [4]: 0.004 | IC50 (KB): 1000 nM | Vd [18]: 1 L/kg | IC50 (cells): 100 nM | %hepatic blood flow (Canis familiaris [20]): 24% | IC50 [8]: 22 nM | solubility at 24 h [9]: 6 µM (≈ 2.87 µg/mL) | %hepatic blood flow (Rattus norvegicus [24]): 4.3% | Vd [25]: 0.5 L/kg | bioavailability [26]: 75% | IC50 [3]: 34 nM | IC50 [2]: 14000 nM | bioavailability [22]: 89% | logD [16]: 3.7 | fraction unbound [17]: 0.011 | IC50 [23]: < 1 nM

Cc1ccc(Oc2ccc(Nc3ncnc4cccc(O[C@@H](C)C(=O)N(C)C)c34)cc2C)cn1
IC50 [2]: 11000 nM

Cc1ccc(Oc2ccc(Nc3ncnc4cccc(O[C@@H](C)C(=O)N5CCOCC5)c34)cc2C)cn1
IC50 [3]: 35 nM

Cc1ccc(Oc2ccc(Nc3ncnc4cccc(O[C@@H](C)C(=O)N(C)CCO)c34)cc2C)cn1
IC50 [3]: 78 nM

Source: ChEMBL document CHEMBL1141561, “A new series of neutral 5-substituted 4-anilinoquinazolines as potent, orally active inhibitors of erbB2 receptor tyrosine kinase” (Bioorg Med Chem Lett, 2008)
